Test results published in ChEMBL document CHEMBL1201862, “PubChem BioAssay data set” (2004).
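48-hour exposure; five concentrations; linearly interpolated endpoints. The concentration for 50% growth inhibition is given as GI50.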 The source made the active and inactive calls. Rule as the data show it: active = GI50 up to about 1.1 µM and inactive = higher.

Tests used:
Assay in all cases: DTP human tumour cell line panel, 48 h
NCI-H226 = system: NCI-H226
786-0 = system: 786-0
OVCAR-5 = system: OVCAR-5
SNB-19 = system: SNB-19
OVCAR-4 = system: OVCAR-4
Malme-3M = system: Malme-3M
HL-60 = system: HL-60
SK-OV-3 = system: SK-OV-3
M19-MEL = system: M19-MEL
SK-MEL-5 = system: SK-MEL-5
SK-MEL-2 = system: SK-MEL-2
SF-268 = system: SF-268
COLO 205 = system: COLO 205
LOX IMVI = system: LOX IMVI
UACC-257 = system: UACC-257
HCT-15 = system: HCT-15
KM12 = system: KM12
A549 = system: A549
ACHN = system: ACHN
NCI-H460 = system: NCI-H460
UACC-62 = system: UACC-62
CAKI-1 = system: CAKI-1
DMS-273 = system: DMS-273
MOLT-4 = system: MOLT-4
EKVX = system: EKVX
TK-10 = system: TK-10
HOP-62 = system: HOP-62
IGROV-1 = system: IGROV-1
M14 = system: M14
OVCAR-8 = system: OVCAR-8
SNB-78 = system: SNB-78
HT-29 = system: HT-29
SW-620 = system: SW-620
SNB-75 = system: SNB-75
SF-295 = system: SF-295
UO-31 = system: UO-31
HOP-92 = system: HOP-92
RPMI-8226 = system: RPMI-8226
NCI-H522 = system: NCI-H522
A498 = system: A498
HCT-116 = system: HCT-116
XF498 = system: XF498
HOP-18 = system: HOP-18
CCRF-CEM = system: CCRF-CEM
SF-539 = system: SF-539
NCI-H23 = system: NCI-H23
K562 = system: K562
HCC 2998 = system: HCC 2998
SR = system: SR
SK-MEL-28 = system: SK-MEL-28
SN12C = system: SN12C
RXF 393 = system: RXF 393
U-251 = system: U-251
OVCAR-3 = system: OVCAR-3
KM-20L2 = system: KM-20L2
DMS-114 = system: DMS-114
MDA-MB-231 = system: MDA-MB-231
DLD-1 = system: DLD-1
BT-549 = system: BT-549
MDA-N = system: MDA-N
MCF7 = system: MCF7
MDA-MB-435 = system: MDA-MB-435
NCI/ADR-RES = system: NCI/ADR-RES
DU-145 = system: DU-145
LXFL 529 = system: LXFL 529
Hs-578T = system: Hs-578T
T47D = system: T47D
PC-3 = system: PC-3

## CCOC(=O)C1=C(O)C(=O)c2ccoc2C1=O
NCI-H226
  GI50: > 100 µM (inactive)
786-0
  GI50: > 100 µM (inactive)
OVCAR-5
  GI50: > 100 µM (inactive)
SNB-19
  GI50: > 100 µM (inactive)
OVCAR-4
  GI50: > 100 µM (inactive)
Malme-3M
  GI50: > 100 µM (inactive)
HL-60
  GI50: > 100 µM (inactive)
SK-OV-3
  GI50: > 100 µM (inactive)
M19-MEL
  GI50: > 100 µM (inactive)
SK-MEL-5
  GI50: > 100 µM (inactive)
SK-MEL-2
  GI50: > 100 µM (inactive)
SF-268
  GI50: > 100 µM (inactive)
COLO 205
  GI50: > 100 µM (inactive)
LOX IMVI
  GI50: > 100 µM (inactive)
UACC-257
  GI50: > 100 µM (inactive)
HCT-15
  GI50: > 100 µM
KM12
  GI50: > 100 µM (inactive)
A549
  GI50: > 100 µM (inactive)
ACHN
  GI50: > 100 µM (inactive)
NCI-H460
  GI50: > 100 µM (inactive)
UACC-62
  GI50: > 100 µM (inactive)
CAKI-1
  GI50: > 100 µM (inactive)
DMS-273
  GI50: > 100 µM (inactive)
MOLT-4
  GI50: > 100 µM (inactive)
EKVX
  GI50: > 100 µM (inactive)
TK-10
  GI50: > 100 µM (inactive)
HOP-62
  GI50: > 100 µM (inactive)
IGROV-1
  GI50: > 100 µM (inactive)
M14
  GI50: > 100 µM (inactive)
OVCAR-8
  GI50: > 100 µM (inactive)
SNB-78
  GI50: > 100 µM (inactive)
HT-29
  GI50: > 100 µM (inactive)
SW-620
  GI50: > 100 µM (inactive)
SNB-75
  GI50: > 100 µM (inactive)
SF-295
  GI50: > 100 µM (inactive)
UO-31
  GI50: > 100 µM (inactive)
HOP-92
  GI50: > 100 µM (inactive)
RPMI-8226
  GI50: > 100 µM (inactive)
NCI-H522
  GI50: > 100 µM (inactive)
A498
  GI50: > 100 µM (inactive)
HCT-116
  GI50: > 100 µM (inactive)
XF498
  GI50: > 100 µM (inactive)
HOP-18
  GI50: > 100 µM (inactive)
CCRF-CEM
  GI50: > 100 µM (inactive)
SF-539
  GI50: > 100 µM (inactive)
NCI-H23
  GI50: > 100 µM (inactive)
K562
  GI50: > 100 µM (inactive)
HCC 2998
  GI50: > 100 µM (inactive)
SR
  GI50: > 100 µM (inactive)
SK-MEL-28
  GI50: > 100 µM (inactive)
SN12C
  GI50: > 100 µM (inactive)
RXF 393
  GI50: > 100 µM (inactive)
U-251
  GI50: > 100 µM (inactive)
OVCAR-3
  GI50: > 100 µM (inactive)
KM-20L2
  GI50: > 100 µM (inactive)
DMS-114
  GI50: > 100 µM (inactive)

## Cn1c2ccccc2n2c3nc4ccccc4nc3c(C#N)c12
NCI-H226
  GI50: > 100 µM (inactive)
786-0
  GI50: 93.8 µM (inactive)
OVCAR-5
  GI50: 10 µM (inactive)
SNB-19
  GI50: > 100 µM (inactive)
OVCAR-4
  GI50: > 71.8 µM (inactive)
Malme-3M
  GI50: > 81.8 µM (inactive)
HL-60
  GI50: > 87.9 µM (inactive)
SK-OV-3
  GI50: 99.5 µM (inactive)
M19-MEL
  GI50: < 0.01 µM (active)
SK-MEL-5
  GI50: 4.4 µM (inactive)
SK-MEL-2
  GI50: > 4.65 µM (inactive)
MDA-MB-231
  GI50: > 97.1 µM (inactive)
DLD-1
  GI50: < 0.01 µM (active)
BT-549
  GI50: > 100 µM (inactive)
SF-268
  GI50: 81.3 µM (inactive)
COLO 205
  GI50: 70 µM (inactive)
LOX IMVI
  GI50: > 100 µM (inactive)
MDA-N
  GI50: > 100 µM (inactive)
UACC-257
  GI50: > 82.6 µM (inactive)
HCT-15
  GI50: 9.29 µM
KM12
  GI50: 9.44 µM (inactive)
A549
  GI50: > 100 µM (inactive)
ACHN
  GI50: 75.3 µM (inactive)
NCI-H460
  GI50: 5.48 µM (inactive)
UACC-62
  GI50: 65.5 µM (inactive)
CAKI-1
  GI50: > 100 µM (inactive)
DMS-273
  GI50: > 100 µM (inactive)
MOLT-4
  GI50: 57.8 µM (inactive)
EKVX
  GI50: > 100 µM (inactive)
TK-10
  GI50: > 10 µM (inactive)
HOP-62
  GI50: 10 µM (inactive)
IGROV-1
  GI50: > 100 µM (inactive)
M14
  GI50: > 100 µM (inactive)
OVCAR-8
  GI50: 74.1 µM (inactive)
HT-29
  GI50: 14.3 µM (inactive)
SW-620
  GI50: 74.8 µM (inactive)
SNB-75
  GI50: > 30.8 µM (inactive)
SF-295
  GI50: 88.3 µM (inactive)
UO-31
  GI50: 77.3 µM (inactive)
HOP-92
  GI50: > 100 µM (inactive)
RPMI-8226
  GI50: 71 µM (inactive)
NCI-H522
  GI50: 5.9 µM (inactive)
MCF7
  GI50: > 75 µM (inactive)
A498
  GI50: 6.44 µM (inactive)
HCT-116
  GI50: 53.8 µM (inactive)
XF498
  GI50: > 100 µM (inactive)
HOP-18
  GI50: > 100 µM (inactive)
MDA-MB-435
  GI50: > 85.7 µM (inactive)
CCRF-CEM
  GI50: 60 µM (inactive)
NCI/ADR-RES
  GI50: > 100 µM (inactive)
SF-539
  GI50: 62.8 µM (inactive)
NCI-H23
  GI50: > 96.8 µM (inactive)
DU-145
  GI50: > 100 µM (inactive)
K562
  GI50: 65.3 µM (inactive)
HCC 2998
  GI50: 9.68 µM (inactive)
SR
  GI50: 49.3 µM (inactive)
SK-MEL-28
  GI50: > 100 µM (inactive)
LXFL 529
  GI50: > 100 µM (inactive)
SN12C
  GI50: > 94.2 µM (inactive)
RXF 393
  GI50: > 42.3 µM (inactive)
Hs-578T
  GI50: 56 µM (inactive)
U-251
  GI50: 74 µM (inactive)
OVCAR-3
  GI50: > 100 µM (inactive)
T47D
  GI50: 21.4 µM (inactive)
PC-3
  GI50: > 96.8 µM (inactive)
DMS-114
  GI50: > 100 µM (inactive)
